Measured values: ChEMBL document CHEMBL1133873, “Highly potent growth hormone secretagogues: hybrids of NN703 and ipamorelin” (Bioorg Med Chem Lett, 2001)
Where a SMILES comes first, the peptide text is derived from it. [ ]: non-standard residue; d: D form. d2Nal = N[C@H](Cc1ccc2ccccc2c1)C(=O)O; Aib = CC(C)(N)C(=O)O

How the values were obtained:
Rattus norvegicus [1] = organism: Rattus norvegicus; test: Concentration required for GH release from isolated pituitary cells of rat tested in vitro; format: functional, cell-based; details: Pituitary gland cell
Rattus norvegicus [2] = organism: Rattus norvegicus; test: Efficacy was determined as percent of GHRP-6 in rat pituitary cell assay tested in vitro; format: functional; details: Pituitary gland cell
Sus scrofa [3] = test: Release of growth hormone at single iv dose of 50 nmol/kg in pigs; format: functional
Sus scrofa [4] = test: Effective dose required for release of GH from pigs in vivo; format: functional

EC50 (Rattus norvegicus [1]) [nM]	SMILES	Emax (Rattus norvegicus [2]) [%]	GHmax (Sus scrofa [3]) [ng/mL]	ED50 (Sus scrofa [4]) [µmol/kg]
10	CC(=O)NCCCCCNC(=O)[C@H](Cc1ccccc1)N(C)C(=O)[C@H](Cc1ccc2ccccc2c1)N(C)C(=O)/C=C/CC(C)(C)N	110	26	
2	CN(C)CCCN(C)C(=O)[C@H](Cc1ccccc1)N(C)C(=O)[C@H](Cc1ccc2ccccc2c1)N(C)C(=O)/C=C/CC(C)(C)N	105	45	
21	CN(C)C(=O)CCCN(C)C(=O)[C@H](Cc1ccccc1)N(C)C(=O)[C@H](Cc1ccc2ccccc2c1)N(C)C(=O)/C=C/CC(C)(C)N	105	21	
14	CCNC(=O)NCCCCCNC(=O)[C@H](Cc1ccccc1)N(C)C(=O)[C@H](Cc1ccc2ccccc2c1)N(C)C(=O)/C=C/CC(C)(C)N	95	8	
1.8	CN(C(=O)/C=C/CC(C)(C)N)[C@@H](Cc1ccc2ccccc2c1)C(=O)N(C)[C@@H](Cc1ccccc1)C(=O)N[C@@H](CCCCN)C(N)=O	105	76	
0.15	CN(C)C(=O)[C@H](CCCCN)NC(=O)[C@H](Cc1ccccc1)N(C)C(=O)[C@H](Cc1ccc(-c2ccccc2)cc1)N(C)C(=O)/C=C/CC(C)(C)N	110	116	
6	CN(C(=O)/C=C/CC(C)(C)N)[C@@H](Cc1ccc(-c2ccccc2)cc1)C(=O)N(C)[C@@H](Cc1ccccc1)C(=O)NCCCN	130	25	
1	CN(C(=O)/C=C/CC(C)(C)N)[C@@H](Cc1ccc(-c2ccccc2)cc1)C(=O)N(C)[C@@H](Cc1ccccc1)C(=O)NCCCCCCN	130	80	
5	CN(C(=O)/C=C/CC(C)(C)N)[C@@H](Cc1ccc(-c2ccccc2)cc1)C(=O)N(C)[C@@H](Cc1ccccc1)C(=O)NCCN	90	62	
17	CN(C(=O)/C=C/CC(C)(C)N)[C@@H](Cc1ccc2ccccc2c1)C(=O)N(C)[C@@H](Cc1ccccc1)C(=O)NCCCCCN=C(N)N	140	49	
1	CN(C(=O)/C=C/CC(C)(C)N)[C@@H](Cc1ccc(-c2ccccc2)cc1)C(=O)N(C)[C@@H](Cc1ccccc1)C(=O)NCCCCN	110	91	
10	CN(C)C(=O)CN(C)C(=O)[C@H](Cc1ccccc1)N(C)C(=O)[C@H](Cc1ccc2ccccc2c1)N(C)C(=O)/C=C/CC(C)(C)N	105	48	
30	CNC(=O)CCCN(C)C(=O)[C@H](Cc1ccccc1)N(C)C(=O)[C@H](Cc1ccc2ccccc2c1)N(C)C(=O)/C=C/CC(C)(C)N	100	32	
0.3	CN(C)C(=O)[C@H](CCCCN)NC(=O)[C@H](Cc1ccccc1)N(C)C(=O)[C@H](Cc1ccc2ccccc2c1)N(C)C(=O)/C=C/CC(C)(C)N	130	105	
4	CN(C)CCCN(C)C(=O)[C@H](Cc1ccccc1)N(C)C(=O)[C@H](Cc1ccc(-c2ccccc2)cc1)N(C)C(=O)/C=C/CC(C)(C)N	95	50	
0.6	CC(C)(N)C(=O)N[C@H](COCc1ccccc1)C(=O)N1CCC2(CC1)CN(S(C)(=O)=O)c1ccccc12 [IBUTAMOREN]	115	60	0.084
	CC(C)(N)C(=O)N[C@@H](Cc1c[nH]cn1)C(=O)N[C@H](Cc1ccc2ccccc2c1)C(=O)N[C@H](Cc1ccccc1)C(=O)N[C@@H](CCCCN)C(N)=O [IPAMORELIN] (H-[Aib]H[d2Nal][dF]K-NH2)	85	54	0.0023
